Values quoted from earlier work, collected in US9333184B2, “Composition and method for affecting male and female hormone levels” (NOKOMIS RESEARCH, INC., priority 2011, dated 2016).

Settings: for ingested amount metabolically degraded: intestine to blood stream

| ingested amount metabolically available | ingested amount metabolically degraded [%] | Structure (SMILES) |
| --- | --- | --- |
| about 70% | 30 | NCCCNCCCCNCCCN [spermine] |
| about 70% | 30 | NCCCCNCCCN [spermidine] |
